Test results published in PubChem BioAssay AID2060888 (Molecular Pharmacology Branch, DTP, NCI, 2025).

Test system: 695427-040-R-J1-PDC complex spheroid viability
Assay: Anticancer human tumor 695427-040-R-J1-PDC patient-derived colon adenocarcinoma cell line growth inhibition [RAS]
Conditions: for IC50: curve of first compound; for viability, T/C: stronger effect = lower value
From the text: RAS pathway inhibitors in Combinations in Complex Spheroids
A high-throughput screen of multi-cell type tumor spheroids was designed to identify active combinations of RAS pathway inhibitors and targeted small molecules. Complex spheroids include a stromal component modeled by human endothelial cells (HUVEC) and fibroblasts modeled by human mesenchymal stem cells (MSCs). The concentration ranges selected for each drug and investigational agent were based upon clinically achievable concentrations if the clinical Cmax of the agent was known.
Compounds. The drugs and investigational agents: abemaciclib (NSC768073), cobimetinib (NSC768068), divarasib (GDC6063, NSC841802), docetaxel (NSC628503), GDC-1971 (RLY-1971, NSC841576), gemcitabine (NSC613327), inavolisib (NSC800729), ipatasertib (NSC767898), KB-0742 (NSC834161), MRTX-1133 (NSC836407), osimertinib (NSC779217), RMC-4630 (NSC839698), RMC-6236 (NSC851965), RMC-6291 (NSC852671), Ro-3306 (NSC812927), sapanisertib (NSC764658), SN-38 (NSC673596), staurosporine (NSC755774), SY5609 (NSC837396), and tovorafenib (DAY101, NSC766906), were obtained from the National Cancer Institute (NCI) Developmental Therapeutics Program Chemical Repository. The FDA-approved anticancer drug set is available from the NCI Developmental Therapeutics Program. […] The stock solutions were prepared in dimethyl sulfoxide (DMSO, Sigma-Aldrich, St. Louis, MO, cat. D2650) at 800-fold the tested concentration and stored at -70 degrees C prior to their use. All drugs and investigational agents were tested over a range starting from a high concentration at or near the clinical Cmax and decreasing in half-log increments. If the clinical Cmax for an agent had not been determined, the highest concentration tested was 10 microM.
Cell Culture. All cells were maintained in an incubator at 37 degrees C and 5% CO2 with 95% humidity. The PDC lines were cultured according to standard operating procedures established by the NCI PDMR. All PDCs were thawed and cultured in Matrigel-coated flasks prepared with a working solution of 1X Ham's F-12 nutrient mix, without supplementation (Invitrogen, Waltham, MA, cat. 11765054), 100 U/mL penicillin-streptomycin (Invitrogen, cat. 15140122), and 2.5% Matrigel (Corning Inc., Corning, NY, cat. 354248) for the first three passages. The 362531-283-R-J2-PDC and 782815-120-R-J1-PDC lines were cultured in 6C/Colon 1B media, which includes advanced DMEM/F-12 (Thermo Fisher Scientific, cat. 12634028), 10 mM HEPES (Thermo Fisher Scientific, cat. 15630080), 1X GlutaMAX supplement (Thermo Fisher Scientific, cat. 35050061), 0.1 mg/mL primocin (InvivoGen, San Diego, CA, cat. ant-pm-2), 10% defined fetal bovine serum, heat inactivated (HyClone Laboratories Inc., Logan, UT, cat. SH30070.03HI), 50% L-WRN conditioned media (ATCC, cat. CRL-3276), 1.25 mM N-Acetyl-L-cysteine (Sigma-Aldrich, cat. A9165), 10 mM nicotinamide (Sigma-Aldrich, cat. N0636), 1X B-27 supplement (Thermo Fisher Scientific, cat. 17504044), 1X N-2 supplement (Thermo Fisher Scientific, cat. 17502048), 50 ng/mL human EGF (Thermo Fisher Scientific, cat. PHG0311), and 10 microM Y-27632 dihydrochloride (Tocris Bioscience, cat. 1254). The K12877-001-R-J1-PDC line was cultured in 6I media, which includes all 6C/Colon 1B media plus 10 ng/mL human FGF-10 (PeproTech, cat. 100-26), 1 ng/mL human FGF-2 (PeproTech, cat. 100-18B), 1 µM prostaglandin E2 (Tocris Bioscience, cat. 2296), […] hydrocortisone (Sigma-Aldrich, cat. H4001), and […] bovine insulin (Sigma-Aldrich, cat. I6634). The K86415-001-R-J1-PDC line was cultured in 6D media, which includes all 6C/Colon 1B media components minus the L-WRN conditioned media. The 485176-168-R4-J1-PDC was cultured in PANC media, which includes all 6C/Colon 1B media plus 100 ng/mL human FGF-10 (PeproTech, cat. 100-26), 500 nM SB-431542 (Selleckchem, cat. S1067), and 10 nM gastrin (Tocris Bioscience, cat. 3006). […]

[1] = second compound 0.000949 µM, first compound 0.00316 µM
[2] = second compound 0.000949 µM, first compound 0.01 µM
[3] = second compound 0.000949 µM, first compound 0.0316 µM
[4] = second compound 0.000949 µM, first compound 0.1 µM
[5] = second compound 0.000949 µM, first compound 0.316 µM
[6] = second compound 0.000949 µM, first compound 1 µM
[7] = second compound 0.003 µM, first compound 0.00316 µM
[8] = second compound 0.003 µM, first compound 0.01 µM
[9] = second compound 0.003 µM, first compound 0.0316 µM
[10] = second compound 0.003 µM, first compound 0.1 µM
[11] = second compound 0.003 µM, first compound 0.316 µM
[12] = second compound 0.003 µM, first compound 1 µM
[13] = second compound 0.00949 µM, first compound 0.00316 µM
[14] = second compound 0.00949 µM, first compound 0.01 µM
[15] = second compound 0.00949 µM, first compound 0.0316 µM
[16] = second compound 0.00949 µM, first compound 0.1 µM
[17] = second compound 0.00949 µM, first compound 0.316 µM
[18] = second compound 0.00949 µM, first compound 1 µM
[19] = second compound 0.03 µM, first compound 0.00316 µM
[20] = second compound 0.03 µM, first compound 0.01 µM
[21] = second compound 0.03 µM, first compound 0.0316 µM
[22] = second compound 0.03 µM, first compound 0.1 µM
[23] = second compound 0.03 µM, first compound 0.316 µM
[24] = second compound 0.03 µM, first compound 1 µM
[25] = second compound 0.0949 µM, first compound 0.00316 µM
[26] = second compound 0.0949 µM, first compound 0.01 µM
[27] = second compound 0.0949 µM, first compound 0.0316 µM
[28] = second compound 0.0949 µM, first compound 0.1 µM
[29] = second compound 0.0949 µM, first compound 0.316 µM
[30] = second compound 0.0949 µM, first compound 1 µM
[31] = second compound 0.3 µM, first compound 0.00316 µM
[32] = second compound 0.3 µM, first compound 0.01 µM
[33] = second compound 0.3 µM, first compound 0.0316 µM
[34] = second compound 0.3 µM, first compound 0.1 µM
[35] = second compound 0.3 µM, first compound 0.316 µM
[36] = second compound 0.3 µM, first compound 1 µM
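Also: viability read after seven days of drug exposure.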
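For viability, T/C in this document: 100% = DMSO vehicle control viability.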

For `C=CC(=O)Nc1cc(Nc2nccc(-c3cn(C)c4ccccc34)n2)c(OC)cc1N(C)CCN(C)C` + CCn1c(-c2cccnc2C(C)OC)c2c3cc(ccc31)N1CCOC(CC(NC(=O)C(C(C)C)N(C)C(=O)C3(F)CCN(C(=O)C#CC(C)(C)N(C)C)CC3)C(=O)N3CCCC(N3)C(=O)OCC(C)(C)C2)C1, the IC50 (second compound 0.000949 µM) was 554 nM, the IC50 (second compound 0.003 µM) was 571 nM and the IC50 (second compound 0.00949 µM) was 453 nM. The IC50 (second compound 0.03 µM) was 600 nM, the IC50 (second compound 0.0949 µM) was 525 nM and the IC50 (second compound 0.3 µM) was 287 nM. For the same compound, the viability, T/C [1] was 85.2%, the viability, T/C [2] was 80.6% and the viability, T/C [3] was 73.5%. For the same compound, the viability, T/C [4] was 100%, the viability, T/C [5] was 60.9% and the viability, T/C [6] was 38.5%. It also gave a viability, T/C [7] of 91.3%, a viability, T/C [8] of 83.4% and a viability, T/C [9] of 95.2%. For the same compound, the viability, T/C [10] was 114%, the viability, T/C [11] was 59.7% and the viability, T/C [12] was 40.8%. The viability, T/C [13] was 94.1%, the viability, T/C [14] was 70.7% and the viability, T/C [15] was 87.6%. It also gave a viability, T/C [16] of 82.2%, a viability, T/C [17] of 56.3% and a viability, T/C [18] of 36.1%. It also gave a viability, T/C [19] of 80.9%, a viability, T/C [20] of 88% and a viability, T/C [21] of 84.5%. It also gave a viability, T/C [22] of 73%, a viability, T/C [23] of 60.6% and a viability, T/C [24] of 42.1%. For the same compound, the viability, T/C [25] was 106%, the viability, T/C [26] was 83.3% and the viability, T/C [27] was 84.5%. For the same compound, the viability, T/C [28] was 80.2%, the viability, T/C [29] was 67.7% and the viability, T/C [30] was 31.5%. The viability, T/C [31] was 74.5%, the viability, T/C [32] was 74.9% and the viability, T/C [33] was 85.7%. It also gave a viability, T/C [34] of 52.8%, a viability, T/C [35] of 54.2% and a viability, T/C [36] of 32.3%.

`CCN1CCN(Cc2ccc(Nc3ncc(F)c(-c4cc(F)c5nc(C)n(C(C)C)c5c4)n3)nc2)CC1` + CCn1c(-c2cc(N3CCN(C)CC3)cnc2C(C)OC)c2c3cc(ccc31)-c1csc(n1)CC(NC(=O)C1CC1C)C(=O)N1CCCC(N1)C(=O)OCC(C)(C)C2 was tested, and the IC50 (second compound 0.000949 µM) was > 1000 nM, the IC50 (second compound 0.003 µM) was > 1000 nM and the IC50 (second compound 0.00949 µM) was > 1000 nM. For the same compound, the IC50 (second compound 0.03 µM) was 75.3 nM, the IC50 (second compound 0.0949 µM) was < 3.16 nM and the IC50 (second compound 0.3 µM) was < 3.16 nM. The viability, T/C [1] was 94.2%, the viability, T/C [2] was 87.4% and the viability, T/C [3] was 95.4%. The viability, T/C [4] was 94.4%, the viability, T/C [5] was 92.8% and the viability, T/C [6] was 59.9%. For the same compound, the viability, T/C [7] was 97.9%, the viability, T/C [8] was 105% and the viability, T/C [9] was 95.7%. For the same compound, the viability, T/C [10] was 85.2%, the viability, T/C [11] was 83.3% and the viability, T/C [12] was 59.2%. For the same compound, the viability, T/C [13] was 105%, the viability, T/C [14] was 74.5% and the viability, T/C [15] was 84.2%. The viability, T/C [16] was 67.2%, the viability, T/C [17] was 67.8% and the viability, T/C [18] was 49.6%. For the same compound, the viability, T/C [19] was 65%, the viability, T/C [20] was 62.9% and the viability, T/C [21] was 45.4%. It also gave a viability, T/C [22] of 53.3%, a viability, T/C [23] of 47.6% and a viability, T/C [24] of 39.7%. For the same compound, the viability, T/C [25] was 51.9%, the viability, T/C [26] was 41.2% and the viability, T/C [27] was 50.4%. It also gave a viability, T/C [28] of 37%, a viability, T/C [29] of 44.4% and a viability, T/C [30] of 36.5%. It also gave a viability, T/C [31] of 37.4%, a viability, T/C [32] of 41.4% and a viability, T/C [33] of 38.6%. The viability, T/C [34] was 38.8%, the viability, T/C [35] was 42.6% and the viability, T/C [36] was 41.9%.
